The target in assay [1] is T1, lipoxygenase from soybeans (Glycine max, UniProt P08170).
T1 construct: host or cells: soybeans
T1 sequence (P08170 1-839): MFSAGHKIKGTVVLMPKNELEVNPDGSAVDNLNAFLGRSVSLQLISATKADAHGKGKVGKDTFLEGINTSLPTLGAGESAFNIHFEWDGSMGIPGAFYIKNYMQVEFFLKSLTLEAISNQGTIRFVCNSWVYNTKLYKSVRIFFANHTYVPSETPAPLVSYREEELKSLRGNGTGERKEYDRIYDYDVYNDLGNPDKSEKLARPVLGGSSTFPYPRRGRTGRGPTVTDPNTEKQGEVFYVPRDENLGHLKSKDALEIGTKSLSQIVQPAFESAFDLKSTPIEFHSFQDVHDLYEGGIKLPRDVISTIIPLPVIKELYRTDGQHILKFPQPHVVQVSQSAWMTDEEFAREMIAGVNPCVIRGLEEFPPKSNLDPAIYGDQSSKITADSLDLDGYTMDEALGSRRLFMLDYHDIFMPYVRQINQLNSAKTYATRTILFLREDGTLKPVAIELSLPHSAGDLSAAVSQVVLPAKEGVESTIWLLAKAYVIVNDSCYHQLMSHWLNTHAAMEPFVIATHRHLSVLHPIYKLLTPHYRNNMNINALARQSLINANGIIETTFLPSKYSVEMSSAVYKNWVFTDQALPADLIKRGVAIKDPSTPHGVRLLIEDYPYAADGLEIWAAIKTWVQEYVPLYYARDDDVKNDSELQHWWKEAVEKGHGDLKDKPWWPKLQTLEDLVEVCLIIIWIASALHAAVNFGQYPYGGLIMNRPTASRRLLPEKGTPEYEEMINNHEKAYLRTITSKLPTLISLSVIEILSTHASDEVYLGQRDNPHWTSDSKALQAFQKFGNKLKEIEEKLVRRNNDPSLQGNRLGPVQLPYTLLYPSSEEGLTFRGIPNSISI
Briefly: Inhibition of lipoxygenase from soybeans. In kind it is biochemical. The conditions noted are these: 0.4 mM; read-out: inhibition of soybean lipoxygenase. How it is done:
(§1) The inhibition of thrombocyte aggregation is likewise ascribed to the inhibition of lipoxygenase in the cells. It has thus been shown that the arachidonate-lipoxygenase activity of a microsome-free lysate of human thrombocyte concentrates is inhibited to the extent of 100% by means of 0.25 mM salicylhydroxamic acid. Moreover, it has been shown that also a series of further lipoxygenases are inhibited by means of the here described hydroxamic acids. The lipoxygenase from soybeans reacts the most insensitive, i.e. it is inhibited by means of 1 mM salicylhydroxamic acid at pH 7.4 to an extent of 60% and by means of 0.4 mM 2-hydroxy-1-napthylhydroxamic acid to an extent of 54%. In contrast, for the lipoxygenase from peas which come closer in their characteristics to human lipoxygenase, the following I50 -values are provided: salicyl hydroxamic acid, 5 μM, 2-hydroxy-1-napthylhydroxamic acid, 2 μM, 2(2'-napthoxy)-acethydroxamic acid, 2 μM. Moreover it has been shown that the formation lipoxygenase products of arachidonic acid in in vitro cultivated aorta endothelial cells of calves is hindered through 0.1 mM 2-hydroxy-1-napthylhydroxamic acids.

Assay [2] addresses T2, lipoxygenase from rabbit reticulocytes (Oryctolagus cuniculus, UniProt P12530).
T2 construct: The lipoxygenase from rabbit reticulocytes is obtained in electrophoretically and immunologically pure form; from tissue; host or cells: rabbit reticulocytes
T2 sequence (P12530 1-663): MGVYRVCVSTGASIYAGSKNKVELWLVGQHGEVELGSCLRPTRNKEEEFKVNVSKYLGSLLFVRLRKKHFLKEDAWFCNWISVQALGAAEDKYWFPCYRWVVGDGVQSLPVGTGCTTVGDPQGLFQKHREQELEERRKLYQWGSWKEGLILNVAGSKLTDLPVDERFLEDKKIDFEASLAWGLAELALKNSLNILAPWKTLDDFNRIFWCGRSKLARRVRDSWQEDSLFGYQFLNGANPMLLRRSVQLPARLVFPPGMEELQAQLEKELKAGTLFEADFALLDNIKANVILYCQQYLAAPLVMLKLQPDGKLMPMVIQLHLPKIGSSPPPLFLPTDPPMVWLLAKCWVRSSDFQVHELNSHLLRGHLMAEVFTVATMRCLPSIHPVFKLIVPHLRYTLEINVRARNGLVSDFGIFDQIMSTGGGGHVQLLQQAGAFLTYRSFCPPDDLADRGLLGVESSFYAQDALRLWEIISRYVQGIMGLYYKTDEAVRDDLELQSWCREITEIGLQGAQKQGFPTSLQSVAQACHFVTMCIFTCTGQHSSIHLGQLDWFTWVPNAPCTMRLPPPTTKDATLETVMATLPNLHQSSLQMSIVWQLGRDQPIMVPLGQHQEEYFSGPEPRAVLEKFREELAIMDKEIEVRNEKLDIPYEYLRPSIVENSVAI
Briefly: Inhibition of the activity of lipoxygenase from rabbit reticulocytes (oxygen consumption, Clark electrode). The class given is biochemical. The conditions noted are these: 25° C., pH 7.4, 0.53 mM linoleic acid, 15 min pre-incubation. How it is done: The lipoxygenase from rabbit reticulocytes was obtained in electrophoretically and immunologically pure form according to a technique known from the literature (S. M. Rapoport et al. Methods in Enzymology 71, 430 (1981)). The determination of lipoxygenase activity follows at 25° C. through the polarographic measurement of the oxygen consumption by means of Clark Electrode in a standardized system.
Through variation of the substance concentrations, the titration curves of the inhibition and therefrom the inhibition concentrations (I-value) of the compounds can be determined.
The testing of compounds for antiasthmatic, antiallergenic, inflammation-inhibiting and antithrombotic activity on the basis on the inhibition of the lipoxygenase reaction of the arachidonic acid cascade follows in a molecular/pharmacological test system. […] The lipoxygenase from rabbit reticulocytes is obtained in electrophoretically and immunologically pure form according to the techniques described in the literature (supra). The determination of the lipoxygenase activity follows at 25° C. through the polorographic measurement of oxygen consumption by means of a Clark-electrode in the following system: 0.1M potassiumphosphate, pH 7.4, with 0.2 percent sodium cholate and 0.53 mM linoleic acid. The enzyme concentration in the measurement preparation came to 25 nM. The compounds to be tested are dissolved in methylglycol (freshly distilled in a vacuum) and pre-incubated for 15 minutes at the measuring temperature in the absence of sodium cholate and linoleic acid. […] The enzyme reaction is started by the addition of sodium cholate and linoleic acid.

In assay [3] the test system is aorta endothelial cells of calves. Briefly: Formation of lipoxygenase products of arachidonic acid in cultivated aorta endothelial cells. In kind it is cell-based. The conditions noted are these: 0.1 mM. As to the method: as §1
For assay [4], the system named is thrombocyte aggregation. As to the kind of experiment: Arachidonic acid-induced thrombocyte aggregation in thrombocyte-rich plasma. The conditions noted are these: Homo sapiens; 0.8 mM arachidonic acid; concentration giving total restraint of aggregation. The class given is cell-based, humans. An excerpt: Since with the new medicines the restraints of lipoxygenase has been identified as a molecular type of attack, also their influence on the thrombocyte-aggregation has been tested. The essential role of the lipoxygenase pathway for irreversibility of the thrombocyte aggregation is now known. (C. E. Dutilh et al. Prostaglandins and Medicine 6, 111 (1981)). The key role is attributed to the irreversibility of the thrombocyte aggregation in the pathogenesis of thrombotic illnesses. […] In the experiments, the thrombocyte aggregation was triggered either by means of arachidonic acid or by means of platelet activation factor (PAF-Acether).
The testing of the compounds for antithrombotic and thrombolytic activity follows in authentic cell systems of humans in vitro. Thrombocyte-rich plasma from the blood of healthy donors is obtained by centrifugation at 1,000×g. The measurement of the thrombocyte aggregation follows by means of an aggregometer based upon diffuse light scattering or light absorption of the produced cell aggregate. The thrombocyte-rich plasma is pre-incubated at 37° C. for 3 minutes with the active substance or substances; thereafter the thrombocyte aggregation is triggered through the addition of either 0.8 mM arachidonic acid or 1 μM platelet activation factor (PAF-acether). The preparations are then stirred with a velocity of 800 rpm. Indeed according to the employed active substance concentration there occurs either a strong delay or a complete inhibition of the thrombocyte aggregation.

For assay [5], the target named is lipoxygenase from peas. As to the kind of experiment: Inhibition of lipoxygenase from peas. In kind it is biochemical. The following applies: read-out: I50. How it is done: as §1

pIC50: −log10 of the molar value.

For orientation: inhibition means the relative decrease from the control value, in per cent. Regarding `O=C(NO)c1c(O)ccc2ccccc12` [2-hydroxy-1-naphthylhydroxanic acid, 2-hydroxy-1-naphthylhydroxamic acid], the inhibition at 400 µM in assay [1] was 54%. Further, the pIC50 in assay [2] (read-out: I50) is 5.80; in assay [5], 5.70. The IC84 in assay [2] (read-out: I84) was 5.2 µM. Further, the “formation of lipoxygenase products of arachidonic acid” value in assay [3] is listed as “hindered”. This compound registered an IC100 in assay [4] of 7 µM.

These data come from patent US4670469A, “Hydroxamic acid and pharmaceutical preparations containing the same” (VEB Arzneimittelwerk Dresden, priority 1983, dated 1987).
